Laboratory results as given in paper PMC11211886 (Frontiers in Pharmacology, 2024).

Assays:
[1] = Amdizalisib remaining/concentration after the last incubation in hepatocyte induction assays; conditions: for Amdizalisib concentration: CYP2C induction assay; for percentage of amdizalisib remaining: 5 h after last incubation
Experimental: […] […] […] Enzyme activity for each CYP isoform was reported as a fold change over vehicle control and the percent of positive control (detailed calculation in Supplementary 1.1). Hepatocytes were harvested with a lysis buffer from RNeasy 96 Kit (Qiagen Inc., Germantown, MD, USA) to isolate RNA, which was analyzed by real-time quantitative polymerase chain reaction (RT-PCR). […] Emax (the maximal observed induction) and EC50 (the concentration that supports half-maximal induction) were estimated by non-linear regression of fold increase in CYP mRNA expression versus concentration plots.

[2] = biological target: T1, CYP2C8 (Homo sapiens, UniProt P10632); assay: Time-dependent CYP inhibition in HLM, CYP2C8; assay type: in vitro ADME; conditions: 10 μM, 30 min pre-incubation with NADPH
T1 construct: tissue Life Technologies (Durham, NC, USA); host or cells: human liver microsomes
T1 sequence (P10632 1-490): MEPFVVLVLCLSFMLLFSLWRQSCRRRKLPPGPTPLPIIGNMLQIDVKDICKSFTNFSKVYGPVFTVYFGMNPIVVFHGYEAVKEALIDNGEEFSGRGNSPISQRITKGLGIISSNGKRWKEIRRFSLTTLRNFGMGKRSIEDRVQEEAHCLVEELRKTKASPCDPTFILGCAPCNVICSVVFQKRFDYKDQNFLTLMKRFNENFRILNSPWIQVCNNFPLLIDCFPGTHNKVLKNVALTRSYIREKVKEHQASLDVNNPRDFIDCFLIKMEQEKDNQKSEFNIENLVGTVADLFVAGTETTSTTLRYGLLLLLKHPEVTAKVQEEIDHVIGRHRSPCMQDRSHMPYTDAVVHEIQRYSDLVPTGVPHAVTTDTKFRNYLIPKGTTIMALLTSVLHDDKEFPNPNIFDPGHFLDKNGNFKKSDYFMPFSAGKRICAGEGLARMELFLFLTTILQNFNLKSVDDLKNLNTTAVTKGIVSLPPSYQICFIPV
Experimental: The procedure of time-dependent CYP inhibition was similar to that used for CYP reversible inhibition, as mentioned above, except that a pre-incubation step was added. […] Another appropriate volume of the NADPH-regenerating system and probe substrate were added to initiate the CYP isoform enzyme activity test step. For this step, the incubation period was 10 min, except for CYP2B6, CYP2C8, and CYP3A4/5 (probe substrate: midazolam), which was 3 min to make sure the reaction was under initial linear rates. After incubation for the designated time periods at 37°C, the ice-cold acetonitrile containing IS was added to quench the reaction. […] (Ainactivator/[…] represents the enzyme activity remaining due to the inhibition by the diluted inactivator in the enzyme activity test step, and (Ainactivator/[…] represents the remaining enzyme activity due to pre-incubation loss plus inhibition by the diluted inactivator in the enzyme activity test step.

[3] = biological target: T2, OAT3 (Homo sapiens, UniProt Q8TCC7); assay: OAT3 inhibition, estrone 3-sulfate uptake in transfected HEK293 cells
T2 sequence (Q8TCC7 1-542): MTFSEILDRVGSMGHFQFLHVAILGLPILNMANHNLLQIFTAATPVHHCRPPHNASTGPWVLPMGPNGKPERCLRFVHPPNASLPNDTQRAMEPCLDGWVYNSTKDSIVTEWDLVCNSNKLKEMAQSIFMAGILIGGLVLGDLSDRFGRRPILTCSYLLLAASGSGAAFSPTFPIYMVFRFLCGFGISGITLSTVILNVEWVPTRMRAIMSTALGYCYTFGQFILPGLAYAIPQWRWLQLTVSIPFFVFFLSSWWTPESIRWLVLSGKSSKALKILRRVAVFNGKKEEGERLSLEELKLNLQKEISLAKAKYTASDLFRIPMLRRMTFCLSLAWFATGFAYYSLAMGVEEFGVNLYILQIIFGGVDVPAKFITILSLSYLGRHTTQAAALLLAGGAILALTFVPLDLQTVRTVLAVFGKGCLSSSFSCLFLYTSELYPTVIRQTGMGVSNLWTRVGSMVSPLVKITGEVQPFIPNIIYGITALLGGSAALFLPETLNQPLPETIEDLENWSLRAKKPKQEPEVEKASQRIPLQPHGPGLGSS
Experimental: The pre-incubation solutions were removed, and incubation solutions containing the inhibitors and probe substrates (or transport buffer containing an equal volume of vehicle control and probe substrates) were added and incubated at 37°C for 2 min (5 min for OATP1B3). The probe substrate for OAT1 was 4-aminohippuric acid (10 μM), for OAT3 was estrone 3-sulfate (10 μM), for OCT2 was metformin (100 μM), for OATP1B1 was β-estradiol 17-(β-D-glucuronide) (5 μM), for OATP1B3 was β-estradiol 17-(β-D-glucuronide) (10 μM), and for MATE1 and MATE2-K was tetraethylammonium (10 μM). After incubation, cells were washed three times with ice-cold transport buffer (25 mM HEPES, pH 7.4, pH 8.0 for overexpressing MATE1 and MATE2-K HEK293 cells) and lysed in distilled water. The concentrations of probe substrates were determined by LC-MS/MS, and a BCA Kit (Solarbio ®Life Sciences, Beijing, China) was used to determine the protein content in the cell lysate.
where C is the concentration of the drug in the cell lysate (nM), P is the protein concentration of the cell lysate (mg/mL), and T is the incubation time (minute). Uptake ratetest compound is the uptake rate of the substrate in the presence of the test compound. Uptake ratevehicle control is the uptake rate of the substrate in the presence of the vehicle control. Uptake ratepassive is the uptake rate of the substrate in the presence of the positive inhibitor at the top test concentration.

With `C[C@H](Nc1ncnc(N)c1C#N)c1cc2ncc(Cl)n2nc1-c1ccccc1` [Amdizalisib] as the compound, how does the Amdizalisib concentration ([1]; nominal 3 µM, donor eight, 1h) read?
The Amdizalisib concentration was 3.57 ± 0.26 µM.

What about the Amdizalisib concentration ([1]; nominal 3 µM, donor four, 1h) of the same compound?
Its Amdizalisib concentration is 3.38 ± 0.33 µM.

What about the Amdizalisib concentration ([1]; nominal 20 µM, donor eight, 1h) of the same compound?
Its Amdizalisib concentration is 23.3 ± 0.27 µM.

And the Amdizalisib concentration ([1]; nominal 20 µM, donor eight, 4h)?
The Amdizalisib concentration was 21.2 ± 2.3 µM.

And the Amdizalisib concentration ([1]; nominal 20 µM, donor eight, 24h)?
Its Amdizalisib concentration is 21.9 ± 0.27 µM.

What about the “percentage of amdizalisib remaining” value ([1]; donor seven, 30 µM) of the same compound?
Its value is 105.3%.

And the “percentage of amdizalisib remaining” value ([1]; donor two, 10 µM)?
Its value is 105.8%.

What about the “percentage of amdizalisib remaining” value ([1]; donor two, 30 µM) of the same compound?
Its value is 104.3%.

What about the “activity loss of CYP2C8” value [2] of the same compound?
Its value is “less than 10%”.

What about the IC50 [3] of the same compound?
The IC50 was 41.1 µM.

What about the Percentage transported ([3]; OAT3, compound 0.3 μM) of the same compound?
Its Percentage transported is 96.4%.

And the Uptake rate ([3]; OAT3, compound 0.3 μM)?
The Uptake rate was 101±1.22 pmol/mg protein/min.

And the Percentage transported ([3]; OAT3, compound 1 μM)?
The Percentage transported was 103%.

What about the Uptake rate ([3]; OAT3, compound 1 μM) of the same compound?
Its Uptake rate is 106±2.62 pmol/mg protein/min.

And the Percentage transported ([3]; OAT3, compound 3 μM)?
The Percentage transported was 97.5%.

And the Uptake rate ([3]; OAT3, compound 3 μM)?
Its Uptake rate is 102±3.76 pmol/mg protein/min.

And the Percentage transported ([3]; OAT3, compound 10 μM)?
Its Percentage transported is 101%.

And the Uptake rate ([3]; OAT3, compound 10 μM)?
Its Uptake rate is 105±1.14 pmol/mg protein/min.

And the Percentage transported ([3]; OAT3, compound 30 μM)?
Its Percentage transported is 52.3%.

And the Uptake rate ([3]; OAT3, compound 30 μM)?
Its Uptake rate is 63.6±3.38 pmol/mg protein/min.

What about the Percentage transported ([3]; OAT3, compound 100 μM) of the same compound?
Its Percentage transported is 27.3%.

What about the Uptake rate ([3]; OAT3, compound 100 μM) of the same compound?
The Uptake rate was 42.5±2.15 pmol/mg protein/min.

What about the inhibition at 2 min, 0.3 µM ([3]; human, pH 7.4) of the same compound?
The inhibition at 2 min, 0.3 µM was 3.57%.

And the inhibition at 2 min, 1 µM ([3]; human, pH 7.4)?
Its inhibition at 2 min, 1 µM is -2.52%.

And the inhibition at 2 min, 3 µM ([3]; human, pH 7.4)?
Its inhibition at 2 min, 3 µM is 2.54%.

And the inhibition at 2 min, 10 µM ([3]; human, pH 7.4)?
The inhibition at 2 min, 10 µM was -0.883%.

And the inhibition at 2 min, 30 µM ([3]; human, pH 7.4)?
The inhibition at 2 min, 30 µM was 47.7%.

And the inhibition at 2 min, 100 µM ([3]; human, pH 7.4)?
Its inhibition at 2 min, 100 µM is 72.7%.

And the “calculated R value (OAT3)” value ([3]; renal OATs)?
Its value is < 1.1.
